The record followed here is US4122179A, “Acid addition salts of vincamine and apovincamine” (priority 1976, dated 1978).

The nature of data set [1]: LD50 / acute toxicity, intraperitoneal route. The class given is in vivo. As to conditions: i.p.; for Toxicity (Gleason): Gleason class in words, classes not defined.
In another data set the test system is vertebral arteria. The experiment in a line: Cerebral vasodilating activity: hematic flow at the vertebral arteria after i.v. administration. The class given is in vivo. The note with it: i.v. (femoral vein), 5 mg/kg of vincamine/apovincamine, anesthetized dog, 4 animals per compound. As to the method: (§1) For the compounds of the present invention a number of pharmacological and pharmacokinetic tests have been carried out. […] As regards the pharmacological and pharmacodynamic activity, it has been studied on the percent variations of the hematic flow, as recorded at the vertebral arteria in the dog after administration of the tested compounds. As regards the pharmacokinetic tests, the compounds were administered per oral route to the Wistar rat, and the hematic levels at different times from the administration were measured.
The cerebral vasodilating activity was studied in the anestetized dog, by measuring, by means of Statham periarterial electromagnetic flowmeters, the hematic flow at the level of the […] which, in such animal species, constitutes the greatest blood supply to the brain.
The resuls are reported in the TABLE 2 (last column) as the percent variations of the flow measured at the level of the ledt vertebral arteria after the i.v. administration of the several compounds to be tested to groups of 4 animals for each compound. The results also confirm that the compounds of the invention are all endowed with a vasodilating activity at the level of the cerebral circulus, such an action being, for some compounds, much more remarkable than that of vincamine and apovincamine.

Another data set is described as follows: Solubility. The class given is physicochemical. The note with it: qualitative; for solubility in alcohol: alcohol (ethyl alcohol).
Data set [2] can be described thus: Hematic levels at different times after oral administration (absorption). The class given is in vivo, Wistar rat. As to conditions: 100 mg/kg expressed as vincamine/apovincamine, 5% carboxymethyl cellulose suspension. As for the experimental part: as §1
For the evaluation of the absorption, all the compounds have been orally administered at the dosage of 100 mg/kg, expressed as vincamine and apovincamine, in form of a suspension in a 5% carboxymethyl cellulose solution.
The absorption was determined by evaulating the hematic levels at the following times (minutes) : 0, 30, 120, 240, 480, 10 hours and 12 hours, in order also to assess the time from the administration (max conc.time) the maximum absorption occurred.
The vincamine and apovincamine concentrations were assessed by chromatographic method.
For the evaluation of the prolonged action of the salts and of the adducts of vincamine and apovincamine the following criterium was adopted; as derivatives having a long-acting effect, there are considered those which, 120 minutes after the administration, show hematic levels higher than those obtained with vincamine and apovincamine.

The LD50 is the dose expected to kill half of the subjects tested. Regarding `CC[C@@]12C=C(C(=O)OC)n3c4c(c5ccccc53)CCN(CCC1)[C@H]42` [Example 10.b, Apovincamine pivalate], in data set [1], the LD50 came to 750 mg/kg and the “Toxicity (Gleason)” value is “modest”. In the data set with vertebral arteria (5 mg/kg), the “% increase (percent variation of hematic flow, left vertebral arteria)” value is given as 31.4%. Moreover, in the data set “Solubility”, the solubility in alcohol result is “soluble” and the solubility in water result was “insoluble”. For the same molecule, the Max. conc. time in data set [2] (100 mg/kg) stood at 480 min.

Consider `CC[C@@]12C=C(C(=O)OC)n3c4c(c5ccccc53)CCN(CCC1)[C@H]42` [Example 15.b, Apovincamine nicotinate], for which, in data set [1], the LD50 turned out to be 750 mg/kg and the “Toxicity (Gleason)” value was “modest”. Further, the “% increase (percent variation of hematic flow, left vertebral arteria)” value with vertebral arteria (5 mg/kg) turned out to be 28.3%. In the data set “Solubility”, the solubility in alcohol result is on record as “insoluble” and the solubility in water entry is listed as “insoluble”. In data set [2] (100 mg/kg), this molecule registered a Max. conc. time of 60 min.

Consider `CC[C@@]12C=C(C(=O)OC)n3c4c(c5ccccc53)CCN(CCC1)[C@H]42` [Example 18.b], for which, in data set [1], the 50% lethal dose (LD50) turned out to be 1500 mg/kg and the “Toxicity (Gleason)” value is on record as “light”. Also, the “% increase (percent variation of hematic flow, left vertebral arteria)” value with vertebral arteria (5 mg/kg) was determined as 33.1%. In addition, in “Solubility”, the solubility in alcohol entry was “insoluble” and the solubility in water entry was “insoluble”. Besides, in data set [2] (100 mg/kg), the Max. conc. time was found to be 120 min.

For `CC[C@@]12C=C(C(=O)OC)n3c4c(c5ccccc53)CCN(CCC1)[C@H]42` [Example 11.b, Apovincamine 4-acetamidobutyrate], in data set [1], the 50% lethal dose (LD50) is given as 1500 mg/kg and the “Toxicity (Gleason)” value is listed as “light”. Also, the “% increase (percent variation of hematic flow, left vertebral arteria)” value with vertebral arteria (5 mg/kg) turned out to be 33.0%. Besides, in the data set “Solubility”, the solubility in alcohol entry is given as “insoluble” and the solubility in water entry is “insoluble”. Further, the Max. conc. time in data set [2] (100 mg/kg) turned out to be 480 min.

For `CC[C@@]12C=C(C(=O)OC)n3c4c(c5ccccc53)CCN(CCC1)[C@H]42` [Example 14.b, Apovincamine L(+)-O,O-dibenzoyltartrate], in data set [1], the LD50 came to 1500 mg/kg and the “Toxicity (Gleason)” value is “light”. In addition, the “% increase (percent variation of hematic flow, left vertebral arteria)” value with vertebral arteria (5 mg/kg) stood at 31.0%. Further, in the data set “Solubility”, the solubility in alcohol entry is recorded as “soluble”. The Max. conc. time in data set [2] (100 mg/kg) turned out to be 120 min.

Take `CC[C@@]12C=C(C(=O)OC)n3c4c(c5ccccc53)CCN(CCC1)[C@H]42` [Example 19.b, Apovincamine p-chlorophenoxyacetate]: in data set [1], the LD50 was 750 mg/kg and the “Toxicity (Gleason)” value is given as “modest”. The “% increase (percent variation of hematic flow, left vertebral arteria)” value in the data set with vertebral arteria (5 mg/kg) is 28.4%. Further, in the data set “Solubility”, the solubility in water result is listed as “insoluble”. Further, the Max. conc. time in data set [2] (100 mg/kg) stood at 480 min.

On to `CC[C@]12CCCN3CCc4c(n(c5ccccc45)[C@@](O)(C(=O)OC)C1)[C@@H]32` [Example 2.a, Vincamine 2,4-dihydroxy-benzoate], for which, in data set [1], the LD50 was 750 mg/kg and the “Toxicity (Gleason)” value is reported as “modest”. In addition, the “% increase (percent variation of hematic flow, left vertebral arteria)” value in the data set with vertebral arteria (5 mg/kg) came out at 24.8%. Moreover, the solubility in alcohol result in the data set “Solubility” is “soluble”. Further, the Max. conc. time in data set [2] (100 mg/kg) is 120 min.

For the molecule `CC[C@]12CCCN3CCc4c(n(c5ccccc45)[C@@](O)(C(=O)OC)C1)[C@@H]32` [Example 5.a, Vincamine 2,6-dihydroxybenzoate], in data set [1], the LD50 is reported as 550 mg/kg and the “Toxicity (Gleason)” value is listed as “modest”. In the data set on vertebral arteria (5 mg/kg), the “% increase (percent variation of hematic flow, left vertebral arteria)” value was determined as 23.6%. Moreover, in “Solubility”, the solubility in alcohol result is listed as “insoluble” and the solubility in water entry is “insoluble”. This molecule also came in with a Max. conc. time in data set [2] (100 mg/kg) of 120 min.

In the case of `CC[C@]12CCCN3CCc4c(n(c5ccccc45)[C@@](O)(C(=O)OC)C1)[C@@H]32` [Example 20.a, Vincamine theophylline-7-acetate], in data set [1], the LD50 is listed as 700 mg/kg and the “Toxicity (Gleason)” value is “modest”. In the data set with vertebral arteria (5 mg/kg), the “% increase (percent variation of hematic flow, left vertebral arteria)” value was 24.5%. In “Solubility”, the solubility in alcohol result was “soluble”, the “solubility in the common (organic) solvents” value (“solubility in the common” for short) was “insoluble” and the solubility in water result is listed as “insoluble”. Further, in data set [2] (100 mg/kg), the Max. conc. time amounted to 60 min.

Consider `CC[C@]12CCCN3CCc4c(n(c5ccccc45)[C@@](O)(C(=O)OC)C1)[C@@H]32` [Example 13.a, Vincamine D(+)-camphorsulfonate], for which, in data set [1], the 50% lethal dose (LD50) worked out at 1350 mg/kg and the “Toxicity (Gleason)” value is “light”. In the data set with vertebral arteria (5 mg/kg), the “% increase (percent variation of hematic flow, left vertebral arteria)” value was found to be 30.1%. Moreover, in the data set “Solubility”, the solubility in alcohol result is reported as “poorly soluble”, the “solubility in the common” value is “insoluble” and the solubility in water result is on record as “soluble”. In data set [2] (100 mg/kg), this molecule showed a Max. conc. time of 60 min.

Regarding `CC[C@]12CCCN3CCc4c(n(c5ccccc45)[C@@](O)(C(=O)OC)C1)[C@@H]32` [Example 18.a, Vincamine enanthate], in data set [1], the 50% lethal dose (LD50) worked out at 750 mg/kg and the “Toxicity (Gleason)” value is “modest”. Further, in the data set with vertebral arteria (5 mg/kg), the “% increase (percent variation of hematic flow, left vertebral arteria)” value came to 27.7%. In addition, the “solubility in the common” value in the data set “Solubility” is on record as “insoluble”. Besides, the Max. conc. time in data set [2] (100 mg/kg) was found to be 60 min.

Turning to `CC[C@]12CCCN3CCc4c(n(c5ccccc45)[C@@](O)(C(=O)OC)C1)[C@@H]32` [Example 21.a], in data set [1], the LD50 is 900 mg/kg and the “Toxicity (Gleason)” value is “modest”. Further, the “% increase (percent variation of hematic flow, left vertebral arteria)” value in the data set on vertebral arteria (5 mg/kg) is 30.0%. For the same molecule, in the data set “Solubility”, the “solubility in the common” value was “insoluble” and the solubility in water result is on record as “insoluble”. This molecule showed a Max. conc. time in data set [2] (100 mg/kg) of 20 min.

With `CC[C@]12CCCN3CCc4c(n(c5ccccc45)[C@@](O)(C(=O)OC)C1)[C@@H]32` [Example 8.a, Vincamine p-toluensulfonate], in data set [1], the median lethal dose (LD50) came to 1250 mg/kg and the “Toxicity (Gleason)” value is given as “light”. The “% increase (percent variation of hematic flow, left vertebral arteria)” value with vertebral arteria (5 mg/kg) is listed as 25.1%. Besides, in the data set “Solubility”, the solubility in alcohol result is “soluble” and the solubility in water entry is recorded as “soluble”. This molecule came in with a Max. conc. time in data set [2] (100 mg/kg) of 480 min.

Turning to `CC[C@@]12C=C(C(=O)OC)n3c4c(c5ccccc53)CCN(CCC1)[C@H]42` [Example 16.b, Apovincamine acetylsalicylate], in data set [1], the median lethal dose (LD50) worked out at 750 mg/kg and the “Toxicity (Gleason)” value is recorded as “modest”. In addition, the “% increase (percent variation of hematic flow, left vertebral arteria)” value in the data set with vertebral arteria (5 mg/kg) came out at 40.1%. For the same molecule, in the data set “Solubility”, the solubility in alcohol result is on record as “soluble” and the solubility in water entry is “very little soluble”. Further, in data set [2] (100 mg/kg), the Max. conc. time is 60 min.

In the case of `CC[C@]12CCCN3CCc4c(n(c5ccccc45)[C@@](O)(C(=O)OC)C1)[C@@H]32` [Example 14.a, Vincamine L(+)-O,O-dibenzoyltartrate], in data set [1], the median lethal dose (LD50) was determined as 950 mg/kg and the “Toxicity (Gleason)” value is “modest”. In addition, the “% increase (percent variation of hematic flow, left vertebral arteria)” value in the data set on vertebral arteria (5 mg/kg) was found to be 29.6%. Further, in “Solubility”, the solubility in alcohol entry is on record as “poorly soluble”, the “solubility in the common” value was “insoluble” and the solubility in water result is “poorly soluble”. In data set [2] (100 mg/kg), the Max. conc. time turned out to be 60 min.

Consider “Apovincamine-pectin (1:1 adduct) [Example 30.b]”, for which, in data set [1], the LD50 came to 750 mg/kg and the “Toxicity (Gleason)” value is “modest”. For the same molecule, the “% increase (percent variation of hematic flow, left vertebral arteria)” value in the data set with vertebral arteria was determined as 39.6%. Besides, the solubility in alcohol result in the data set “Solubility” was “little soluble”. In addition, the Max. conc. time in data set [2] stood at 60 min.

Regarding Vincamine tannate [Example 24.a], in data set [1], the LD50 is 700 mg/kg and the “Toxicity (Gleason)” value was “modest”. In addition, the “% increase (percent variation of hematic flow, left vertebral arteria)” value with vertebral arteria turned out to be 26.2%. The solubility in alcohol result in “Solubility” is listed as “soluble”. The Max. conc. time in data set [2] turned out to be 240 min.

With “Apovincamine-pectin (2:1 adduct) [Example 31.b]”, in data set [1], the LD50 is 900 mg/kg and the “Toxicity (Gleason)” value is “light”. For the same molecule, the “% increase (percent variation of hematic flow, left vertebral arteria)” value in the data set with vertebral arteria worked out at 28.2%. Moreover, in “Solubility”, the solubility in alcohol result is “poorly soluble” and the solubility in water result is “insoluble”. For the same molecule, in data set [2], the Max. conc. time amounted to 480 min.

On to `CC[C@]12CCCN3CCc4c(n(c5ccccc45)[C@@](O)(C(=O)OC)C1)[C@@H]32` [Example 27.a, Vincamine hydroquinone], for which, in data set [1], the LD50 was 500 mg/kg and the “Toxicity (Gleason)” value was “modest”. Further, the “% increase (percent variation of hematic flow, left vertebral arteria)” value in the data set with vertebral arteria (5 mg/kg) was found to be 29.1%. In “Solubility”, the “solubility in the common” value is “insoluble” and the solubility in water result is on record as “insoluble”. Moreover, the Max. conc. time in data set [2] (100 mg/kg) came out at 120 min.
